Like-named read-outs stand apart in the source and are kept apart here.
How the values were obtained:
SOS1 = target: T1, SOS1 (Homo sapiens, UniProt Q07889); experiment: biochemical
T1 sequence (Q07889 1-1333): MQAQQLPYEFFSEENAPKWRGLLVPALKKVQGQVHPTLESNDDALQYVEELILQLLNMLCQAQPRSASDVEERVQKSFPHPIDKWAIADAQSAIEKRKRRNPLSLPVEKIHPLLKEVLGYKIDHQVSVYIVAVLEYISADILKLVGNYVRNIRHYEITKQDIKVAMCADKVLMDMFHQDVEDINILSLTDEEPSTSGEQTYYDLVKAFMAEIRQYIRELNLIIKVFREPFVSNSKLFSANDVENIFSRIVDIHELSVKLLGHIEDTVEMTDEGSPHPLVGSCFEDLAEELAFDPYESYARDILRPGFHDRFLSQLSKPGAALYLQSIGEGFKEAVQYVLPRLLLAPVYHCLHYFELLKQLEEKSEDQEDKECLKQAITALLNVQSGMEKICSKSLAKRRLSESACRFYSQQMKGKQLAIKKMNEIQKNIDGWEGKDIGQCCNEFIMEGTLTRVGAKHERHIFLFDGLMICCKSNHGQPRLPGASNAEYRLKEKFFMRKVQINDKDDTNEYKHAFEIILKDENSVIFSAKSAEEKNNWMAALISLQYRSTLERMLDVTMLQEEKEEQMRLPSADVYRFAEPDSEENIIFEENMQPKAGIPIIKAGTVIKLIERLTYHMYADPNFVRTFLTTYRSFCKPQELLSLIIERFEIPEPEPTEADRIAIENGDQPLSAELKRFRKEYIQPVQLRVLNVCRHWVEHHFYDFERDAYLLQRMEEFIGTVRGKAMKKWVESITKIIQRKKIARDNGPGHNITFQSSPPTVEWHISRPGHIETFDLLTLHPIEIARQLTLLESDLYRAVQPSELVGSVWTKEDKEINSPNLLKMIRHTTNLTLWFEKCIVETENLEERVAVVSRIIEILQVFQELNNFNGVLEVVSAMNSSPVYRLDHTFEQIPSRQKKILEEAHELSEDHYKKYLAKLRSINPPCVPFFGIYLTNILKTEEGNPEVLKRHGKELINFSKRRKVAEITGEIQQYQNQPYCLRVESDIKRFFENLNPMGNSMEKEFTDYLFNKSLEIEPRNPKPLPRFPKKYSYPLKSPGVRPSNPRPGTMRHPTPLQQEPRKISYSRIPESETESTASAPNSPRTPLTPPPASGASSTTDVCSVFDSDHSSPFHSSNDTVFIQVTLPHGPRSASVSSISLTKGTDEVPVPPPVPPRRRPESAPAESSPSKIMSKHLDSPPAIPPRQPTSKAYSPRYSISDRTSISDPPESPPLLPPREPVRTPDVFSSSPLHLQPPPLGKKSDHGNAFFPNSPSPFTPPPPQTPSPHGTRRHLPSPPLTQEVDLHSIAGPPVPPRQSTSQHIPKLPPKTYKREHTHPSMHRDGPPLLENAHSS

[1] = Rat liver microsomal metabolic stability; assay type: in vitro ADME; details: rat liver microsomes; for half-life at 1 µM: NADPH, 37°C; for CLint scaled at 1 µM: calculated from T1/2, fu defaulted to 1, read-out: CL(liver)
Text: Metabolic stability affects the clearance rate, half-life, and oral bioavailability of compounds in the body, and is one of the most important ADME drug-like properties of compounds. Hepatocyte microsomal stability assay is a commonly used method for studying metabolic stability. In the present disclosure, rat liver microsomes are used to determine and investigate the metabolic stability of compounds.
Preparation of compound stock solution: an appropriate amount of the test compound and testosterone was taken, and a 1 mM stock solution was prepared with DMSO, which was stored in a refrigerator at 4°C.
Preparation of compound working solution: The 1 mM compound stock solution was taken respectively, and then diluted to 100 µM with acetonitrile-water (v:v = 1:1) to obtain the working solution.
Preparation of NADPH working solution: an appropriate amount of NADPH was weighed and dissolved in 16 mM MgCl2 to prepare a NADPH working solution with a concentration of 4.0 mM.
Preparation of rat liver microsome working solution: an appropriate amount of rat liver microsomes was taken and diluted with PBS to obtain a liver microsome working solution with a concentration of 1 mg/mL.
In the incubation system, 48 µL of PBS, 100 µL of rat liver microsome working solution, and 2 µL of the test compound working solution were sequentially added and mixed well. After pre-incubation at 37°C for 5 min, 50 µL of NADPH was added to initiate the reaction. After incubation for the corresponding time points, an appropriate amount of ice-cold acetonitrile containing an internal standard was added to terminate the reaction. The mixture was vortexed to mix well, centrifuged, and the supernatant was collected. The supernatant was injected into LC-MS/MS for detection of the residual metabolic amount of the compound.
Softwares of Excel, etc. were used for data processing according to the following formula. Ct = C0 •e^(−ke •t) [formula] when Ct = (1)/(2)C0 [formula] , T1/2 = (Ln2)/(ke) = (0.693)/(ke) [formula] CLint(mic) = (0.693)/(In vitro T1/2)•(1)/(mg/mL microsomal protein in reaction system) [formula] CLint(liver) = CLint(mic) •(mg microsomes)/(g liver)•(g liver)/(kg body weight) [formula] CL(liver) = (CLint(liver)×fu×Qh)/(CLint(liver)×fu+Qh) [formula] fu (unbound fraction in blood) was defaulted to be 1.

CYP2C9 = target: T2, CYP2C9 (Homo sapiens, UniProt P11712); experiment: Inhibition of hepatic drug-metabolizing enzymes in human liver microsomes; assay type: in vitro ADME; details: human liver microsomes; read-out: Inhibitory activity on drug-metabolizing enzymes (IC50, µM) CYP2C9
T2 construct: human liver microsomes were used as the CYP450 enzyme source; from tissue; host or cells: human liver microsomes
T2 sequence (P11712 whole entry): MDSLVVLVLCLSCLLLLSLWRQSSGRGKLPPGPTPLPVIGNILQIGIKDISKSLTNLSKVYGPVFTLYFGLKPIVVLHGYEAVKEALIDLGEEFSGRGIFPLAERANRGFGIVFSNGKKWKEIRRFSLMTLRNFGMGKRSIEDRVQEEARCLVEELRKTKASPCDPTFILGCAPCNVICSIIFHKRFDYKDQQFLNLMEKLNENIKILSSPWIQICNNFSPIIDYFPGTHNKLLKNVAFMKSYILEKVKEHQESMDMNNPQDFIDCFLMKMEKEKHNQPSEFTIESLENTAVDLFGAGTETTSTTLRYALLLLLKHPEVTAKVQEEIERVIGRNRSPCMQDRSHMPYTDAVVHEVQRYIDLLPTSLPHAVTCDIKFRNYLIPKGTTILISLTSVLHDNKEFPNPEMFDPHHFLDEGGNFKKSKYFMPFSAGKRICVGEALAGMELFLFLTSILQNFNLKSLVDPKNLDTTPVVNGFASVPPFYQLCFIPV
Text: (§1) The main site of drug metabolism is the liver, and the main component of the mixed-function oxidase system present in the liver is the CYP450 enzyme. This enzyme system causes most clinically observed drug-drug interactions, which in turn leads to an increased incidence of adverse drug reactions. CYP450 is a group of supergene family composed of many isozymes, wherein CYP3A4 acts as a major metabolizing enzyme and is involved in the metabolism of nearly half of clinically used drugs. Similarly, CYP2C9 and CYP2C19 also act as important metabolizing enzymes and are involved in the metabolism of various drugs clinically. Therefore, evaluating the risk of drug-drug interactions by testing the inhibitory activity of compounds on CYP450 enzymes at an early stage can improve the safety of medication use.
(§2) In the present disclosure, human liver microsomes were used as the CYP450 enzyme source. The specific probe substrates for each CYP isoenzyme (wherein CYP3A4 used two substrates, midazolam and testosterone, denoted as CYP3A4-M and CYP3A4-T respectively) were incubated with a series of concentrations of the test compound in the presence of the cofactor NADPH. The production amount of metabolites of probe substrates in the incubation system was determined by LC-MS/MS, and the IC50 values of the test compound against each CYP450 enzyme subtype were calculated to evaluate its inhibitory effect on each CYP450 enzyme subtype. During the experiment, 49 µL of PBS, 50 µL of probe substrate, and 50 µL of human liver microsome working solution were sequentially added to the incubation system, followed by the addition of 1 µL of the test compound working solution at each concentration, and the mixture was mixed well. After pre-incubation at 37°C for 5 min, 50 µL of NADPH was added to initiate the reaction. After incubation for the corresponding time, an appropriate amount of ice-cold acetonitrile containing an internal standard was added to terminate the reaction. The mixture was vortexed to mix well, centrifuged, and the supernatant was taken. The supernatant was injected into LC-MS/MS to determine the production amount of metabolites of the probe substrate. Taking the enzyme activity at the 0-concentration point (characterized by the production amount of metabolites) as 100%, the percentage of residual enzyme activity of metabolites at different concentrations of the test compound was calculated. IC50 was calculated by the residual enzyme activity using Graphpad Prism software.

CYP2C19 = target: T3, CYP2C19 (Homo sapiens, UniProt P33261); experiment: as above; assay type: in vitro ADME; details: human liver microsomes; read-out: Inhibitory activity on drug-metabolizing enzymes (IC50, µM) CYP2C19
T3 construct: human liver microsomes were used as the CYP450 enzyme source; from tissue; host or cells: human liver microsomes
T3 sequence (P33261 whole entry): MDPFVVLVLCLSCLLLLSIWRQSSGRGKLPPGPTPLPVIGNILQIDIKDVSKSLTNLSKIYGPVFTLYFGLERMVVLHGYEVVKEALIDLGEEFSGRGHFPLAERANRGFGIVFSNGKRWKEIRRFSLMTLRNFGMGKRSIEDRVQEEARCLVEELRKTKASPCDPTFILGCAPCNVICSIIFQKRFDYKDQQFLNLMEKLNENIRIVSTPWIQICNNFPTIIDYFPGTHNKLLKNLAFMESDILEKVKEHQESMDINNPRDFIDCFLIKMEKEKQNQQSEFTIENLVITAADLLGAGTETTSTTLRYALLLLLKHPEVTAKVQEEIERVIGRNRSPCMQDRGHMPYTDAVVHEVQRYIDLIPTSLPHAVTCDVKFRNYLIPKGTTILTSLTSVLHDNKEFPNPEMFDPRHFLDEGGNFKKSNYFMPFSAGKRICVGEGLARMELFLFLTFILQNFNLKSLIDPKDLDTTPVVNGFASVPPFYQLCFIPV
Text: as §1, §2

CYP3A4 = target: T4, CYP3A4 (Homo sapiens, UniProt P08684); experiment: Inhibition of hepatic drug-metabolizing enzymes in human liver microsomes (substrates midazolam and testosterone); assay type: in vitro ADME
T4 construct: human liver microsomes were used as the CYP450 enzyme source; from tissue; host or cells: human liver microsomes
T4 sequence (P08684 whole entry): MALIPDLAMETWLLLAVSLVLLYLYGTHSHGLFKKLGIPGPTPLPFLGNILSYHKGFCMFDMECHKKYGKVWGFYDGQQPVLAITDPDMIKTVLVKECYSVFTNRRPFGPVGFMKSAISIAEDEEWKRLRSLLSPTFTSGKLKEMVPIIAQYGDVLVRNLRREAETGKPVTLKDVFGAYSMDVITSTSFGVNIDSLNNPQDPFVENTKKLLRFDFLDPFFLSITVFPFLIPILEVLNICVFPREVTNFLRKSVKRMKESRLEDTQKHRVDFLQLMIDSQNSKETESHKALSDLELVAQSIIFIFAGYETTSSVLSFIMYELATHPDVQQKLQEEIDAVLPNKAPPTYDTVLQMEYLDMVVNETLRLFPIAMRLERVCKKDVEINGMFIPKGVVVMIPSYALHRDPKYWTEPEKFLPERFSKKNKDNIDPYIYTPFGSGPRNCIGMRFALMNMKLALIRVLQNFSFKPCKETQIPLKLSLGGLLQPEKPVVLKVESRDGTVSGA
Text: as §1, §2

[2] = Mouse pharmacokinetic test; assay type: in vivo; details: plasma, female Balb/c mice, IV 1 mg/kg, PO 10 mg/kg via gavage
Procedure: Female Balb/c mice, weighing 19-21 g, were divided into two groups based on the principle of similar body weight, with 9 mice in each of the IV group and the PO group (for cross blood collection). The IV group was administered the test compound at a dose of 1 mg/kg via intravenous injection, and the PO group was administered the test compound at a dose of 10 mg/kg via gavage. Whole blood was collected from the IV group before administration and at 0.083, 0.25, 0.5, 1, 2, 4, 6, 8, and 24 h after administration; for the PO group, whole blood was collected before administration and at 0.25, 0.5, 1, 2, 4, 6, 8, and 24 h after administration. The blood samples were placed in K2-EDTA anticoagulant tubes, centrifuged (4°C) within 30 minutes to separate plasma, and stored at -80°C for subsequent testing. During sample processing, an appropriate amount of acetonitrile containing an internal standard was used for protein precipitation, vortexed, and after centrifugation, the supernatant was taken for injection into LC-MS/MS for detection. Based on the measured plasma drug concentrations, the main pharmacokinetic parameters were calculated to evaluate its pharmacokinetic behavior. The main pharmacokinetic parameters were analyzed by the non-compartmental model using WinNonLin 8.3 software.

Rat pharmacokinetic test = assay type: in vivo; details: plasma, male SD rats, IV 1 mg/kg, PO 5 mg/kg via gavage
Procedure: Male SD rats, weighing 200-250 g, were used and divided into two groups based on the principle of similar body weight, with 3 rats in each of the IV group and the PO group. The IV group was administered the test compound at a dose of 1 mg/kg via intravenous injection, and the PO group was administered the test compound at a dose of 5 mg/kg via gavage. Whole blood was collected from the IV group respectively before administration and at 0.083, 0.25, 0.5, 1, 2, 4, 6, 8, and 24 h after administration; for the PO group, whole blood was collected before administration and at 0.25, 0.5, 1, 2, 4, 6, 8, and 24 h after administration. The blood samples were placed in K2-EDTA anticoagulant tubes, centrifuged (4°C) within 30 min to separate plasma, and stored at -80°C for subsequent testing. During sample processing, an appropriate amount of acetonitrile containing an internal standard was used for protein precipitation, vortexed, and after centrifugation, the supernatant was taken for injection into LC-MS/MS for detection. Based on the measured plasma drug concentrations, the main pharmacokinetic parameters were calculated to evaluate its pharmacokinetic behavior. The main pharmacokinetic parameters were analyzed by the non-compartmental model using WinNonLin 8.3 software.

[3] = substrate midazolam, read-out: Inhibitory activity on drug-metabolizing enzymes (IC50, µM) CYP3A4-M
[4] = substrate testosterone, read-out: Inhibitory activity on drug-metabolizing enzymes (IC50, µM) CYP3A4-T

Row | Structure (SMILES) | IC50 (SOS1) | half-life at 1 µM [1] | CLint scaled at 1 µM [1] | IC50 (CYP2C9) | IC50 (CYP2C19) | IC50 (CYP3A4; [3]) | IC50 (CYP3A4; [4]) | bioavailability [2] | bioavailability (Rat pharmacokinetic test) | IC50 (CYP3A4; Inhibitory activity on drug-metabolizing enzymes (IC50, µM) CYP3A4-M, substrate midazolam) | IC50 (CYP3A4; Inhibitory activity on drug-metabolizing enzymes (IC50, µM) CYP3A4-T, substrate testosterone)
1 | CNc1nnc(N[C@H](C)c2cccc(C(F)F)c2F)c2cn(C3CC3)c(=O)cc12 [Example 13, (R)-6-cyclopropyl-4-((1-(3-(difluoromethyl)-2-fluorophenyl)ethyl)amino)-1-(methylamino)pyrid o[3,4-d]pyridazin-7(6H)-one] | 0.0046 µM | 3.97 h | 8.8 mL/min/kg | > 10 µM | > 10 µM | > 10 µM | > 10 µM | – | – | – | –
2 | C[C@@H](Nc1nnc(N)c2cc(=O)n(C3(C)CC3)cc12)c1cccc(C(F)F)c1F.O=CO [Example 74, (R)-1-amino-4-((1-(3-(difluoromethyl)-2-fluorophenyl)ethyl)amino)-6-(1-methylcyclopropyl) pyrido[3,4-d]pyridazin-7(6H)-one formate] | 0.0046 µM | > 5 h | < 7.23 mL/min/kg | > 10 µM | > 10 µM | > 10 µM | > 10 µM | – | – | – | –
3 | C[C@@H](Nc1nnc(N)c2cc(=O)n(C3CC3)cc12)c1cccc(C(F)F)c1F [Example 75, (R)-1-amino-6-cyclopropyl-4-((1-(3-(difluoromethyl)-2-fluorophenyl)ethyl)amino)pyrido[3,4-d]pyridazin-7(6H)-one] | 0.0048 µM | > 5 h | < 7.23 mL/min/kg | > 10 µM | > 10 µM | > 10 µM | > 10 µM | – | – | – | –
4 | Cc1c(C#N)cccc1[C@@H](C)Nc1nnc(C)c2cnc(N3CCOCC3)cc12 [MRTX0902, reference compound] | – | 0.0483 h | 51.9 mL/min/kg | 4 µM | 8.62 µM | – | – | 40.4% | 22.6% | 6.9 µM | 8.75 µM

Reference: patent EP4722213A1, “NITROGEN-CONTAINING FUNCTIONAL GROUP-SUBSTITUTED PYRIDAZINOPYRIDONE DERIVATIVE AND USE THEREOF” (Sichuan Huiyu Pharmaceutical Co., Ltd., priority 2023, dated 2024)
